Blank lines part the entries; values can stand above or below the compound they belong to. Active and inactive are the calls of the source. The rule behind the calls is not given here.
Tests used:
[1] = test system: HL-60; test: Cell cycle arrest in human HL60 cells assessed as accumulation at G0/G1 phase at IC50 after 24 hrs by propidium iodide staining based flow cytometric method (reference value: 51.7%); assay type: functional
[2] = test system: HL-60; test: Cell cycle arrest in human HL60 cells assessed as accumulation at sub-G0/G1 phase at IC50 after 24 hrs by propidium iodide staining based flow cytometric method (reference value: 3.9%); assay type: functional
[3] = test system: HL-60; test: Cell cycle arrest in human HL60 cells assessed as accumulation at G2/M-phase at IC50 after 24 hrs by propidium iodide staining based flow cytometric method (reference value: 14.06%); assay type: functional
[4] = test system: HL-60; test: Cell cycle arrest in human HL60 cells assessed as accumulation at S-phase at IC50 after 24 hrs by propidium iodide staining based flow cytometric method (reference value: 34.24%); assay type: functional
[5] = test system: HL-60; test: Induction of apoptosis in human HL60 cells assessed as late apoptotic cells at IC50 after 24 hrs by annexin-V-FITC/propidium iodide staining based flow cytometric analysis (reference value: 1.93%); assay type: functional
[6] = test system: Calf thymus DNA; test: Binding affinity to calf thymus DNA at 0.1 to 0.5 molar ratio per nucleotide incubated for 24 hrs under dark condition by circular dichroism spectral analysis; assay type: nucleic-acid assay; settings: Bos taurus
[7] = test system: HL-60; test: Induction of apoptosis in human HL60 cells assessed as viable cells at IC50 after 24 hrs by annexin-V-FITC/propidium iodide staining based flow cytometric analysis (reference value: 93.81%); assay type: functional
[8] = test system: DNA; test: Binding affinity to Escherichia coli supercoiled pBR322 DNA assessed as supercoiled areas of plasmid DNA at 0.005 molar ratio per nucleotide incubated for 24 hrs under dark condition by tapping mode atomic force microscopic analysis (reference value: 3.5%); assay type: nucleic-acid assay
[9] = test system: MCF7; test: Induction of apoptosis in human MCF7 cells assessed as nuclear fragmentation at IC50 after 24 hrs by DAPI staining based immunofluorescence microscopic analysis; assay type: functional, cell-based
[10] = test system: HL-60; test: Antiproliferative activity against human HL60 cells after 24 hrs by XTT assay; assay type: functional, cell-based; settings: HL-60, 24 h
[11] = test system: DNA; test: Binding affinity to Escherichia coli supercoiled pBR322 DNA assessed as DNA undergoing kinks at 0.005 molar ratio per nucleotide incubated for 24 hrs under dark condition by tapping mode atomic force microscopic analysis; assay type: nucleic-acid assay
[12] = test system: MCF7; test: Antiproliferative activity against human MCF7 cells after 24 hrs by XTT assay; assay type: functional, cell-based; settings: MCF7, 24 h
[13] = test system: MCF7; test: Induction of apoptosis in human MCF7 cells assessed as cell blobbing at IC50 after 24 hrs by DAPI staining based immunofluorescence microscopic analysis; assay type: functional
[14] = test system: MCF7; test: Cell cycle arrest in human MCF7 cells assessed as accumulation at sub-G0/G1 phase at IC50 after 24 hrs by propidium iodide staining based flow cytometric method; assay type: functional
[15] = test system: DNA; test: Binding affinity to Escherichia coli supercoiled pBR322 DNA assessed as 6 to 8 cross links per DNA molecule at 0.005 molar ratio per nucleotide incubated for 24 hrs under dark condition by tapping mode atomic force microscopic analysis (reference value: 12%); assay type: nucleic-acid assay
[16] = test system: DNA; test: Binding affinity to Escherichia coli supercoiled pBR322 DNA assessed as more than 10 cross links per DNA molecule at 0.005 molar ratio per nucleotide incubated for 24 hrs under dark condition by tapping mode atomic force microscopic analysis (reference value: 1%); assay type: nucleic-acid assay
[17] = test system: HL-60; test: Antiproliferative activity against human HL60 cells after 72 hrs by XTT assay; assay type: functional, cell-based; settings: HL-60, 72 h
[18] = test system: DNA; test: Binding affinity to Escherichia coli supercoiled pBR322 DNA assessed as 0 to 2 cross links per DNA molecule at 0.005 molar ratio per nucleotide incubated for 24 hrs under dark condition by tapping mode atomic force microscopic analysis (reference value: 49%); assay type: nucleic-acid assay
[19] = test system: MCF7; test: Cell cycle arrest in human MCF7 cells assessed as accumulation at G0/G1 phase at IC50 after 24 hrs by propidium iodide staining based flow cytometric method; assay type: functional
[20] = test system: HL-60; test: Induction of apoptosis in human HL60 cells assessed as necrotic cells at IC50 after 24 hrs by annexin-V-FITC/propidium iodide staining based flow cytometric analysis (reference value: 0.06%); assay type: functional
[21] = test system: MCF7; test: Induction of apoptosis in human MCF7 cells assessed as reduction in cell size at IC50 after 24 hrs by DAPI staining based immunofluorescence microscopic analysis; assay type: functional
[22] = test system: MCF7; test: Antiproliferative activity against human MCF7 cells after 72 hrs by XTT assay; assay type: functional, cell-based; settings: MCF7, 72 h
[23] = test system: DNA; test: Binding affinity to Escherichia coli supercoiled pBR322 DNA assessed as DNA structural variation at 0.1 to 0.5 molar ratio per nucleotide incubated for 24 hrs under dark condition by ethidium bromide staining based agarose gel electrophoresis; assay type: nucleic-acid assay
[24] = test system: MCF7; test: Induction of apoptosis in human MCF7 cells assessed as formation of apoptotic bodies at IC50 after 24 hrs by DAPI staining based immunofluorescence microscopic analysis; assay type: functional, cell-based
[25] = test system: MCF7; test: Cell cycle arrest in human MCF7 cells assessed as accumulation at G2/M-phase at IC50 after 24 hrs by propidium iodide staining based flow cytometric method; assay type: functional
[26] = test system: MCF7; test: Induction of apoptosis in human MCF7 cells assessed as DNA condensation at IC50 after 24 hrs by DAPI staining based immunofluorescence microscopic analysis; assay type: functional, cell-based
[27] = test system: DNA; test: Binding affinity to Escherichia coli supercoiled pBR322 DNA assessed as 9 to 10 cross links per DNA molecule at 0.005 molar ratio per nucleotide incubated for 24 hrs under dark condition by tapping mode atomic force microscopic analysis (reference value: 2%); assay type: nucleic-acid assay
[28] = test system: MCF7; test: Induction of apoptosis in human MCF7 cells assessed as shrinkage of cell core at IC50 after 24 hrs by DAPI staining based immunofluorescence microscopic analysis; assay type: functional
[29] = test system: DNA; test: Binding affinity to Escherichia coli supercoiled pBR322 DNA assessed as DNA undergoing cross links at 0.005 molar ratio per nucleotide incubated for 24 hrs under dark condition by tapping mode atomic force microscopic analysis; assay type: nucleic-acid assay
[30] = test system: MCF7; test: Induction of apoptosis in human MCF7 cells assessed as nuclear condensation at IC50 after 24 hrs by DAPI staining based immunofluorescence microscopic analysis; assay type: functional, cell-based
[31] = test system: HL-60; test: Induction of apoptosis in human HL60 cells assessed as early apoptotic cells at IC50 after 24 hrs by annexin-V-FITC/propidium iodide staining based flow cytometric analysis (reference value: 4.2%); assay type: functional
[32] = test system: MCF7; test: Induction of apoptosis in human MCF7 cells assessed as microtubule disintegration at IC50 after 24 hrs by indirect immunofluorescence analysis; assay type: functional, cell-based
[33] = test system: MCF7; test: Cell cycle arrest in human MCF7 cells assessed as accumulation at S-phase at IC50 after 24 hrs by propidium iodide staining based flow cytometric method; assay type: functional
[34] = test system: DNA; test: Binding affinity to Escherichia coli supercoiled pBR322 DNA assessed as 3 to 5 cross links per DNA molecule at 0.005 molar ratio per nucleotide incubated for 24 hrs under dark condition by tapping mode atomic force microscopic analysis (reference value: 37%); assay type: nucleic-acid assay

SMILES: COC(=O)Nc1nc2cc(C(=O)c3cccs3)ccc2[nH]1 [NOCODAZOLE]
Activity [1]: 45.28%
Activity [2]: 14.11%
Activity [3]: 33.46%
Activity [4]: 21.26%

Activity [6]: inactive
Activity [8]: 3.6%
IC50 [10]: 3.05 µM
Activity [11]: inactive
IC50 [12]: 27.2 µM
Activity [15]: 19%
Activity [16]: 1%
IC50 [17]: 3.24 µM
Activity [18]: 51%
IC50 [22]: 18.8 µM
Activity [23]: inactive
Activity [27]: 1%
Activity [29]: inactive
Activity [34]: 28%
SMILES: CC(=O)O[C@H](OCc1ccccc1)[C@]1(C)C(=O)[C@@H](I)C(=O)[C@@H](C)[C@@H]2CC[C@H]1O2
Activity [5]: 26.85%
Activity [7]: 55.71%
Activity [9]: Active
Activity [1]: 67.37%
Activity [13]: Active
Activity [14]: Active
Activity [19]: Active
Activity [20]: 0.35%
Activity [21]: Active
Activity [2]: 31.14%
Activity [24]: Active
Activity [25]: inactive
Activity [26]: Active
Activity [3]: 6.33%
Activity [28]: Active
Activity [30]: Active
Activity [31]: 16.97%
Activity [32]: Active
Activity [33]: Active
Activity [4]: 26.31%

IC50 [10]: > 250 µM
IC50 [12]: > 250 µM
IC50 [17]: > 250 µM
IC50 [22]: > 250 µM
SMILES: C[C@H]1[C@H]2CC[C@H](O2)[C@]2(C)[C@@H](OCc3ccccc3)C(=O)C[C@]12O (relative stereo)
